Columns and labels:
Format in all cases: cell-based, human
BT-549 Gal-3 P^64 cells [1] = assay: Western blot analysis of PARP cleavage after cisplatin treatment; details: galectin-3 P^64 expressing cells, 50 μM cisplatin, 24, 48, 72 hours
Method: (§1) FIGS. 4I and 4II show cisplatin induced apoptosis of BT-549 cells and cloned variants, FIG. 4I: % apoptosis in cells treated with 25 uM cisplatin for 72 hr at 37° C. and analyzed following MTT assay (ODs in the untreated control cells were calculated as 100%, and the values are the average of triplicate experiments, bars represent ±SD, *P>0.001), FIG. 4II: Western blot analysis of the expression of PARP in cells treated with 50 μM cisplatin after 24, 48, and 72 hours, IIA: BT-549; IIB: BT-549 Gal-3 H^64; IIC: BT-549 Gal-3 P^64 (β-Actin was used as loading control. 1—untreated; 2—24 hours; 3—48 hours; 4—72 hours), FIGS. 4IIIA-B and 4IIIA′-C′: Immunohistochemical analysis of intact and cleaved galectin-3 in breast cancer progression. To investigate the possible functional significance of this allelic variation, BT-549 stable cell clones over-expressing either Galectin-3 P^64 or H^64 variant after transfection, selection, and cloning of BT-549 galectin-3 null cells were generated. […] In parental and P64 clone, the apoptotic cells were 76.5±1.34% and 71.5±3.02% respectively (FIG. 4I). That the cells' death was due to apoptosis was confirmed by the cleavage of PARP. […] A-A′: normal breast tissue, B-B′: ductal hyperplasia, C-C′: infiltrating lobular carcinoma. Arrows in B′ and C′ indicate the cleaved protein, representative pictures are presented from a study of 5 normal breast tissues, 10 lobular hyperplasia, and 8 infiltrating lobular carcinoma cases. To determine if cell death is due to apoptosis, 1×10^6 cells were seeded in 100 mm Petri dishes. After 24 hours of serum starvation, the cells were incubated with […]. After 24, 48, 72 hours, the cells were trypsinized, lysed and equivalent number of cells (1×10^5) were subjected to SDS-PAGE and Western blot analysis with a 1:200 dilution of anti-poly (ADP-ribose) polymerase (PARP), mouse monoclonal antibody (BioMol, Plymouth Meeting, Pa.). Blots were also immuno-reacted with a 1:5000 dilution of anti-b-actin mouse monoclonal antibody to normalize for variation in protein loading. […]

BT-549 Gal-3 H^64 cells [2] = assay: as above; details: galectin-3 H^64 cells, 50 μM cisplatin, 24, 48, 72 hours
Method: as §1

BT-549 cells [3] = assay: as above; details: parental BT-549 cells, 50 μM cisplatin, 24, 48, 72 hours
Method: as §1

BT-549 Gal-3 P^64 cells [4] = assay: Cisplatin induced apoptosis, MTT assay; details: BT-549 galectin-3 P64 clone, 25 uM cisplatin, 72 hr, 37° C.
Method: (§2) FIGS. 4I and 4II show cisplatin induced apoptosis of BT-549 cells and cloned variants, FIG. 4I: % apoptosis in cells treated with 25 uM cisplatin for 72 hr at 37° C. and analyzed following MTT assay (ODs in the untreated control cells were calculated as 100%, and the values are the average of triplicate experiments, bars represent ±SD, *P>0.001), FIG. 4II: Western blot analysis of the expression of PARP in cells treated with 50 μM cisplatin after 24, 48, and 72 hours, IIA: BT-549; IIB: BT-549 Gal-3 H^64; IIC: BT-549 Gal-3 P^64 (β-Actin was used as loading control. 1—untreated; 2—24 hours; 3—48 hours; 4—72 hours), FIGS. 4IIIA-B and 4IIIA′-C′: Immunohistochemical analysis of intact and cleaved galectin-3 in breast cancer progression. To investigate the possible functional significance of this allelic variation, BT-549 stable cell clones over-expressing either Galectin-3 P^64 or H^64 variant after transfection, selection, and cloning of BT-549 galectin-3 null cells were generated. […] In parental and P64 clone, the apoptotic cells were 76.5±1.34% and 71.5±3.02% respectively (FIG. 4I). That the cells' death was due to apoptosis was confirmed by the cleavage of PARP. […] A-A′: normal breast tissue, B-B′: ductal hyperplasia, C-C′: infiltrating lobular carcinoma. Arrows in B′ and C′ indicate the cleaved protein, representative pictures are presented from a study of 5 normal breast tissues, 10 lobular hyperplasia, and 8 infiltrating lobular carcinoma cases. 2500 BT-549, BT-549 Gal-3 H^64 and BT-549 Gal-3 P^64 cells were seeded per well in triplicates onto 24 well culture dishes. In one set of wells, 25 μM cisplatin (Sigma-Aldrich Inc., St. Louis, Mo.) was added after 24 hr of seeding, the other non-treated set served as a control. Cell viability/apoptosis was determined after 72 hours by the mitochondrial-dependent reduction of 3-(4,5-dimethylthiazol-2-yl)-2,5-diphenyltetrazolium bromide (MTT) (Sigma-Aldrich Inc., St. Louis, Mo.) to formazan.

BT-549 Gal-3 H^64 cells [5] = assay: Cisplatin induced apoptosis, MTT assay; details: BT-549 cells expressing galectin-3 H^64 variant, 25 uM cisplatin, 72 hr, 37° C.
Method: as §2

BT-549 cells [6] = assay: Cisplatin induced apoptosis, MTT assay; details: parental BT-549 cells, 25 uM cisplatin, 72 hr, 37° C.
Method: as §2

For `N.N.[Cl][Pt][Cl]` [cisplatin], the “PARP cleavage (85 kDa cleaved polypeptide)” value (“PARP cleavage” for short) (BT-549 Gal-3 P^64 cells [1]) was “showed the 85 kDa cleaved polypeptide of PARP”, the “PARP cleavage” value (BT-549 Gal-3 H^64 cells [2]) was “refractive to PARP cleavage” and the “PARP cleavage” value (BT-549 cells [3]) was “showed the 85 kDa cleaved polypeptide of PARP”. It also gave an apoptotic cells (BT-549 Gal-3 P^64 cells [4]) of 71.5±3.02%, an apoptotic cells (BT-549 Gal-3 H^64 cells [5]) of 36.2±2.2% and an apoptotic cells (BT-549 cells [6]) of 76.5±1.34%.
